Assay results reported in US6497862B2, “Composition for inhibiting body odor and uses thereof” (Kabushiki Kaisha Hayashibara, priority 2000, dated 2002).

Tests used:
[1] = Dispersion of 2-nonenal, GC of HSG (Experiment 4); conditions: 10 mg 2-nonenal + 100 mg test saccharide, 80° C. 5 min (dispersion test); control 8.67
Description: Ten milligrams of 2-nonenal, 500 mg of a cellulose powder, and 1.25 ml of 0.12 M phosphate buffer (pH 6.0) were placed in a 20-ml glass vial. To the glass vial was added 100 mg of either of trehalose, maltitol and sucrose as a test saccharide, followed by sealing with a butyl rubber cap. As a control system, there provided a glass vial with no test saccharide that differed from the test systems only in this point. These glass vials were kept in a heat block, preheated to 80° C. After 5-min standing, the glass vials were sampled by two milliliters of HSG with a gas syringe. The content of 2-nonenal in the sampled HSG was measured by GC in accordance with the method in Experiment 2.

[2] = Decomposition of fatty acids by heating, 9-hexadecanoic acid (Experiment 5); conditions: heated at 105° C. for one hour with 100 mg test saccharide; control 38.1
Description: (§1) One hundred milligrams of linoleic acid or 9-hexadecanoic acid as a fatty acid, 500 mg of a cellulose powder, and 1.25 ml of 0.12 M phosphate buffer (pH 6.0) were placed in a 20-ml glass vial. To the glass vial was added 100 mg of either of trehalose, maltitol and sucrose as a test saccharide, followed by sealing with a butyl rubber cap. As a control system, there provided a glass vial with no test saccharide that differed from the test systems only in this point. These vials were heated at 105° C. for one hour. Another glass vial with no heat treatment, which contained the same ingredients as shown in the above, was provided that differed from the test systems only in that it had no heat treatment.
(§2) The above test systems with or without heat treatment and the control system were subjected to the following methyl esterification reaction and analyzed on GC to measure the content of fatty acids; To each glass vial was added 20 ml of a mixture solution of chloroform and methanol (=2:1 by volume) to extract fatty acids, and one milliliter of each resulting extract was collected in a 10-ml eggplant-shape flask, concentrated, and dried in vacuo. […]
(§3) Two microliters of each of the resulting n-hexane layers were analyzed on GC using “GAS CHROMATOGRAPH GC-14A”, a GC apparatus, commercialized by Shimadzu Corporation, Tokyo, Japan; and “CAPILLARY COLUMN FFAP”, an analysis column having an inner diameter of 0.25 mm, a length of 30 m, and a membrane thickness of 0.25 μm, commercialized by GL Sciences Inc., Tokyo, Japan, under the conditions of using helium gas as a carrier at a flow rate of 1 ml/min, at a temperature of 250° C. as a sample injection temperature, a column thermostatic bath temperature being kept at 80° C. for five minutes and then increased up to 240° C. at a rate of 5° C./min, and a hydrogen flame ionization detector for detecting fatty acids. Based on the peak area of the obtained gas chromatograms, it was calculated the content of fatty acids, i.e., linoleic acid and 9-hexadecanoic acid, before or after the heat treatment in the test- and control-systems. […]

[3] = Panel test of body-odor-like smell (KAREI-SHU), linoleic acid heated (Experiment 2); design: key: +++: the same or higher level of odor; ++: slightly lower level of odor; +: clearly lower level of odor than that of the control system; conditions: compared with control system
Source text: Upon the HSG samples, the level of a body-odor-like smell was examined on a panel test consisting of six professional panels; the panels directly smelled the samples from each glass vial and judged the level of the smells for each samples with test saccharides based on the following four ranks, i.e., the same or higher level of odor (+++), slightly lower level of odor (++), clearly lower level of odor (+), and odorless (−) as compared with the control system. Summing up the data from the panels, the samples tested were totally evaluated.
The content of 2-nonenal in HSG was measured by GC similarly as in Experiment 1 except that linoleic acid was used as a fatty acid and 2-nonenal, a volatile aldehyde, was used as a standard substance. The level of a body-odor-like smell, particularly with respect to KAREI-SHU, in each sample was evaluated by panel test in accordance with the method in Experiment 1.

[4] = Decomposition of fatty acids by heating, linoleic acid (Experiment 5); conditions: heated at 105° C. for one hour with 100 mg test saccharide; control 60.0
Description: as §1, §2, §3

Row | Compound | Content of 2-nonenal in HSG [1] [µg/mL] | Decomposition percentage, 9-Hexadecanoic acid [2] [%] | Evaluation of panel test [3] | Decomposition percentage, Linoleic acid [4] [%]
1 | OC[C@@H](O)[C@@H](O[C@H]1O[C@H](CO)[C@@H](O)[C@H](O)[C@H]1O)[C@H](O)[C@@H](O)CO [Maltitol, maltitol] | 8.27 | 14.7 | + | 33.4
2 | OC[C@H]1O[C@@](CO)(O[C@H]2O[C@H](CO)[C@@H](O)[C@H](O)[C@H]2O)[C@@H](O)[C@@H]1O [Sucrose, sucrose] | 8.70 | 38.5 | +++ | 58.0
3 | OC[C@H]1O[C@H](O[C@H]2O[C@H](CO)[C@@H](O)[C@H](O)[C@H]2O)[C@H](O)[C@@H](O)[C@@H]1O [Trehalose, trehalose] | 8.60 | 13.2 | + | 25.2
